Test results published in article PMC8557901 (Microbiology Spectrum, 2021).
Counter-ions that a name gives are not always drawn. Like-named read-outs stand apart in the source and are kept apart here.

Experiments:
[1] = system: P. falciparum strain K1 in RBC; assay: In vitro chemosensitivity assay, blood stage P. falciparum K1 (SYBR green I); assay type: cell-based; conditions: Plasmodium falciparum, read-out: EC50 (μM) for P. falciparum strain K1 in RBC
Protocol: Maintenance in continuous culture was done as described previously by Trager and Jensen ([46]). Cultures were maintained in fresh A+ human erythrocytes (EFS [French Blood Bank]) at 2.5% hematocrit in complete medium (RPMI 1640 with 25 mM HEPES, 25 mM NaHCO3, 10% A+ human serum) at 37°C under a reduced-O2 atmosphere (gas mixture of 10% O2, 5% CO2, and 85% N2). Parasitemia was maintained daily between 1% and 3%. The P. falciparum drug susceptibility test was carried out by comparing quantities of DNA in treated and control cultures of parasites in human erythrocytes according to a SYBR green I fluorescence-based method ([50]) using a 96-well fluorescence plate reader. Compounds, previously dissolved in DMSO (final concentration, less than 0.5% vol/vol), were incubated in a total assay volume of 200 μl of synchronized culture suspension (2% hematocrit and 0.4% parasitemia) for 72 h in a humidified atmosphere (85% N2, 10% O2, and 5% CO2) at 37°C in 96-well flat-bottom plates. Duplicate assays were performed for each sample. After incubation, plates were frozen at −20°C for 24 h. Then, the frozen plates were thawed for 1 h at 37°C. Fifteen microliters of each sample was transferred to 96-well flat-bottom black plates (Greiner Bio-one) already containing 15 μl of the SYBR green I lysis buffer (2× SYBR green I, 20 mM Tris base, pH 7.5, 20 mM EDTA, 0.008% [wt/vol] saponin, 0.08% [wt/vol] Triton X-100). […] Plates were incubated for 15 min at 37°C and then read on a Tecan Infinite F-200 spectrophotometer with excitation and emission wavelengths at 485 and 535 nm, respectively. […] EC50K1 values represent the mean values calculated from three independent experiments.

[2] = Cytotoxicity on HepG2 cell line (MTT); assay type: cell-based; conditions: human, HepG2 cells
Protocol: The evaluation of the cytotoxicity of the tested molecules on the HepG2 cell line was performed according to the method of Mosman ([42]) with slight modifications. […] Triplicate assays were performed for each sample. Each well was then examined under a microscope to detect possible precipitate formation before the medium was aspirated from the wells. An amount of 100 μl of MTT solution (0.5 mg/ml in medium without FBS) was then added to each well. […] After this time, the MTT solution was removed and DMSO (100 μl) was added to dissolve the resulting blue formazan crystals. Plates were shaken vigorously (700 rpm) for 10 min. The absorbance was measured at 570 nm with 630 nm as the reference wavelength using a Tecan Infinite F-200 microplate reader. DMSO was used as a blank and doxorubicin as a positive control. Cell viability was calculated as the percentage compared to the control (cells incubated without compound). […] CC50 values represent the mean values calculated from three independent experiments.

[3] = system: P. cynomolgi liver-stage parasites in simian primary hepatocytes; assay: In vitro liver-stage development, P. cynomolgi in simian primary hepatocytes; assay type: cell-based, Plasmodium cynomolgi
Excerpt: (§1) Primary human hepatocytes were isolated from liver segments obtained from adult patients undergoing partial hepatectomy (Service de Chirurgie Digestive, Hépato-Bilio Pancréatique, Hôpital Pitié Salpêtrière, Paris, France). Primary simian hepatocytes were isolated from liver segments collected from healthy Macaca fascicularis monkeys from CEA, Fontenay aux Roses, France. All hepatocytes were obtained using collagenase perfusion as previously described ([40]). […] Primary murine hepatocytes were isolated from liver segments collected from BALB/c mice. Human and murine hepatocytes were used directly after their isolation. Cells were seeded in 96-well plates (Falcon; Becton Dickinson Labware Europe, France) coated with collagen I (BD Bioscience, USA) at a density of 80,000 cells per well. […] For human hepatocytes, the complete medium was supplemented with 2% dimethyl sulfoxide (DMSO; Sigma-Aldrich, USA) before infection to preserve their differentiation.
(§2) On the day of infection, 3 · 10^4 sporozoites of P. falciparum, P. yoelii, and P. cynomolgi were added to their respective host cell cultures (human, murine, and simian). The infected culture plates were centrifuged for 10 min at 900 × g, allowing fast parasite sedimentation, and further incubated with serial dilutions of M1. Culture medium containing the appropriate drug concentration was refreshed daily, and cells were fixed at 48 h postinfection (p.i.) for infections with P. yoelii, 6 days p.i. for P. falciparum, or 8 days p.i. for P. cynomolgi. For the in vitro sporozoite invasion experiments, P. falciparum sporozoites were preincubated with 1, 10, and 100 μM M1 for 1 h at room temperature before hepatocyte infections. Three hours later, after sporozoite penetration into hepatocytes, cultures were washed and then further incubated with or without the presence of the drug during 6 days. DMSO was used as a negative control.
(§3) The number, size, and shape of the parasites were determined using a CellInsight high-content screening platform equipped with Studio HCS software (ThermoFisher Scientific). […] Host cell and parasite nuclei were labeled with DAPI (4′,6-diamidino-2-phenylindole). […] The custom script used for counting and measuring parasites first required identification of the objects based on a fluorescence intensity threshold. The object identity was then further validated based on size and morphological (shape) criteria. The presence of DAPI-associated fluorescence in the selected objects allowed their final selection and the rejection of false positives. […] The parasitic size reduction was calculated on the average object area using the total surface area of each selected object (μm^2).

[4] = system: P. falciparum liver-stage parasites in human primary hepatocytes; assay: In vitro liver-stage development, P. falciparum in human primary hepatocytes; assay type: cell-based, Plasmodium falciparum
Excerpt: as §1, §2, §3

[5] = system: P. falciparum sporozoites invading primary human hepatocytes; assay: Hepatocyte invasion by preincubated P. falciparum sporozoites; conditions: reference compound; all concentrations tested
Protocol: as §2, §3

[6] = system: P. yoelii liver-stage parasites in murine primary hepatocytes; assay: In vitro liver-stage development, P. yoelii in murine primary hepatocytes; assay type: cell-based, Plasmodium yoelii
Excerpt: P. yoelii 230-GFP-Luc sporozoites are mutant parasites expressing a green fluorescent protein (GFP)-luciferase cassette generated by the gene out marker out (GOMO) strategy ([39]).
as §1, §2, §3

[7] = system: P. yoelii in HepG2-CD81 cells; assay: Hepatic stage of P. yoelii in HepG2-CD81 cells; assay type: cell-based; conditions: Plasmodium yoelii; hepatic schizonts
Protocol: Hepatocytes were seeded into collagen-coated black 96-well plates and maintained at 37°C in 5% CO2 in complete medium. […] The infected culture plates were centrifuged for 10 min at 900 × g, allowing fast parasite sedimentation, and further incubated with serial dilutions of M1. […] DMSO was used as a negative control. The number, size, and shape of the parasites were determined using a CellInsight high-content screening platform equipped with Studio HCS software (ThermoFisher Scientific). The parasite immunostaining was done using an […]70 antibody raised in mice and a secondary anti-mouse antibody coupled to Alexa Fluor 488 ([43]). […] Thirty-seven images, representing more than 95% of the total bottom surface area of a culture well in 96-well plates, were captured for analysis. The custom script used for counting and measuring parasites first required identification of the objects based on a fluorescence intensity threshold. The object identity was then further validated based on size and morphological (shape) criteria. The presence of DAPI-associated fluorescence in the selected objects allowed their final selection and the rejection of false positives. […] The parasitic size reduction was calculated on the average object area using the total surface area of each selected object (μm^2).

[8] = system: P. yoelii (GFP-luc strain); assay: In vivo liver-stage assay in mice infected with P. yoelii sporozoites; design: species or system BALB/c mice; conditions: 50 mg/kg; blood smears days 3 and 6
Protocol: Five mice per treatment group were used. Experimental groups were treated with 50 and 100 mg/kg of M1 intraperitoneally (i.p.). Untreated infected mice and noninfected mice (infection controls), as well as primaquine-treated (50 mg/kg) mice (control drug), were also included. The drugs were administered on days −1, 0, and +1, and mice were challenged on day zero by retroorbital injection of P. yoelii (GFP-luc strain) sporozoites (10,000 per mouse). In vivo bioluminescence imaging was performed 44 h postinfection on day 2, to assess liver-stage development. When parasites were detected in the liver, treatment was continued until day 5 and in vivo imaging was performed on days 3 and 6, to evaluate a prepatent period for the blood-stage parasites in mice after the sporozoite inoculation. In vivo imaging and blood smears were performed to monitor blood-stage development using methods described previously ([45]). This experiment was performed twice.
IVIS Spectrum (Caliper Life Science, Hanover, MD) was used to capture bioluminescence signals. Prior to analysis, the mice were injected i.p. with D-luciferin (100 mg/kg), anesthetized with isoflurane, and imaged 10 min postinjection. Images were analyzed using the Living Image 3.0 software (Caliper Life Sciences, Hanover, MD).
In order to study the in vivo efficacy of M1 without any hepatic CYP metabolism, we conducted an experiment using 1-aminobenzotriazole (ABT), a nonselective inhibitor of cytochrome P450 enzymes ([34], [35]). ABT was administered to mice i.p. 1 h before each treatment with 50 mg/kg gamhepathiopine for 3 days starting from the day before sporozoite inoculation.

[9] = system: P. falciparum F32-ART5 quiescent parasites; assay: Quiescent-stage survival assay (QSA); assay type: cell-based, Plasmodium falciparum; conditions: artemisinin 3 μM 6 h then artemisinin + CQ 200 nM versus artemisinin alone
Protocol: The Plasmodium falciparum artemisinin-resistant strain F32-ART5 and its twin artemisinin-sensitive line F32-TEM ([30], [31]) were cultivated at 37°C with 5% CO2 in human red blood cells (EFS [French Blood Bank]) diluted to 2% hematocrit in RPMI 1640 medium supplemented with 5% human serum (EFS) as previously reported ([47]).
Chemosensitivity evaluation of artemisinin-resistant parasites at the quiescent stage was performed on the F32-ART5 strain using the quiescent-stage survival assay (QSA) ([33]). D-Sorbitol-synchronized ring-stage parasites at 3% parasitemia (2% hematocrit) were first exposed to 3 μM artemisinin for 6 h to induce quiescence of artemisinin-resistant parasites. Then, quiescent parasites were exposed or not (as a control condition) to 2.5 μM M1 for 24 h. After drug exposure, parasite cultures were washed with RPMI 1640 medium and replaced in normal drug-free culture conditions. The time to parasite recrudescence was determined as the time required to reach initial parasitemia. […] In each experiment, results obtained with the condition “artemisinin 3 μM 6 h/artemisinin 3 μM 24 h” were compared to those obtained with the condition “artemisinin 3 μM 6 h/(artemisinin 3 μM + M1 2.5 μM) 24 h” in order to determine the delay in recrudescence time. […] Each experiment was carried out three times independently, and data statistically analyzed. […]

Plasmodium berghei = system: Plasmodium berghei; design: method as in PMID 25791675; conditions: 2.5 mg/kg twice a day for 3 days; untreated group 9%; cited from earlier work

In the case of `CC(C)(C)Nc1nc2cc(-c3ccc(C=O)cc3)sc2c(=O)[nH]1` [Metabolite 8, 4-(2-(tert-Butylamino)-4-oxo-3,4-dihydrothieno[3,2-d]pyrimidin-6-yl)benzaldehyde], the melting point is reported as 296 °C, the EC50 ([1]; K1, erythrocytic stage, 72 h) is reported as 3.1 µM and the CC50 at 72 h [2] is reported as 25.3 µM.
For `COc1cc(NC(C)CCCN)c2ncccc2c1` (stereo not shown) [Primaquine, reference compound], the EC50 ([3]; Plasmodium cynomolgi, Hepatocyte, P. cynomolgi in simian primary hepatocytes (SH), mean ± SEM of triplicate experiments, read-out: EC50 against liver-stage parasites) was 2720 ± 340 nM, the “SI (selectivity index)” value ([3]; hepatocyte CC50/EC50, P. cynomolgi (SH)) was 12 and the “Size reduction at 10 μM (%)” value ([3]; parasite (schizont) size, 10 μM, P. cynomolgi (SH)) was 70%. For the same compound, the EC50 ([4]; Plasmodium falciparum, Hepatocyte, P. falciparum in human primary hepatocytes (HH), mean ± SEM of triplicate experiments, read-out: EC50 against liver-stage parasites) was 600 ± 60 nM, the “SI (selectivity index)” value ([4]; hepatocyte CC50/EC50, P. falciparum (HH)) was 66 and the “Size reduction at 10 μM (%)” value ([4]; parasite (schizont) size, 10 μM, P. falciparum (HH)) was 100%. The “percentage of inhibition of hepatocyte invasion” value [5] was 100%, the EC50 ([6]; Plasmodium yoelii, Hepatocyte, read-out: EC50 against liver-stage parasites) was 640 ± 100 nM and the “SI (selectivity index)” value ([6]; hepatocyte CC50/EC50, P. yoelii (MH)) was 110. The EC50 [7] was 3.6 µM and the “blood-stage parasitemia after sporozoite infection” value [8] was “remained clear of parasitemia”.
`CC(C)(C)Nc1nc2cc(-c3ccc(C(=O)O)cc3)sc2c(=O)[nH]1` (as salt: hydrochloride) [Metabolite 10, 4-(2-(tert-Butylamino)-4-oxo-3,4-dihydrothieno[3,2-d]pyrimidin-6-yl)benzoic acid] gave a melting point greater than 300 °C.
Work on `CC(C)(C)Nc1nc2cc(-c3ccc(CO)cc3)sc2c(=O)[nH]1` [Metabolite 7, 2-(tert-Butylamino)-6-(4-(hydroxymethyl)phenyl)thieno[3,2-d]pyrimidin-4(3H)-one] yielded a melting point of 264 °C, an EC50 ([1]; K1, erythrocytic stage, 72 h) of 0.4 µM and a CC50 at 72 h [2] of 25 µM. It also gave an EC50 [7] of 1 µM.
In the case of `CCN(CC)CCCC(C)Nc1ccnc2cc(Cl)ccc12` (stereo not shown) [Chloroquine, reference compound], the EC50 ([1]; K1, 72 h) is given as 0.8 µM, the “difference in recrudescence times versus artemisinin alone” value [9] is given as “no difference in the recrudescence times” and the “parasitemia at day 4” value (Plasmodium berghei) is given as 1.5%.
